Assay results: patent US8765779B2, “Tricyclic derivatives and their pharmaceutical use and compositions” (Cephalon, Inc., priority 2009, dated 2014)
Counter-ions that a name gives are not always drawn.

For `CC(C)Oc1cccc(S(=O)(=O)c2ccc3c4c(oc3c2)C(C)(C(F)F)NCC4)c1` (single isomer, unassigned) (as salt: HCl) [Example 34, 1-(difluoromethyl)-1-methyl-7-{[3-(propan-2-yloxy)phenyl]sulfonyl}-1,2,3,4-tetrahydro[1]benzofuro[2,3-c]pyridine], which melting point is on record?
The melting point was 219 to 222 °C.

For `COCCCOc1cc(OC(C)C)cc(S(=O)(=O)c2ccc3c(c2)OC2CNCCC32)c1` (stereo not shown) (as salt: HCl) [Example 588], which melting point is on record?
Its melting point is 164 to 166 °C.

Which melting point does the source give for `CN(C)C(=O)c1cccc(S(=O)(=O)c2ccc3c4c(oc3c2)CNCC4)c1` (as salt: hydrochloride) [Example 474, N,N-Dimethyl-3-(1,2,3,4-tetrahydro[1]benzofuro[2,3-c]pyridin-7-ylsulfonyl)benzamide hydrochloride] here?
Its melting point is 262 to 265 °C.

For `O=S(=O)(c1cccc(OCC2CCCO2)c1)c1ccc2c(c1)OC1CNCCC21` (stereo not shown) (as salt: HCl) [Example 577], which melting point is on record?
The melting point was 205 to 206 °C.

For `COc1cc(OCC2CC2)cc(S(=O)(=O)c2ccc3c(c2)OC2CNCCC32)c1` (stereo not shown) (as salt: HCl) [Example 585], which melting point is on record?
The melting point was 224 to 225 °C.

With `N#Cc1ccccc1COc1cccc(S(=O)(=O)c2ccc3c(c2)OC2CNCCC32)c1` (stereo not shown) (as salt: HCl) [Example 550] as the molecule, how does the melting point read?
The melting point was 194 to 195 °C.

For `COC(=O)CCCCOc1cccc(S(=O)(=O)c2ccc3c(c2)OC2CNCCC32)c1` (stereo not shown) (as salt: HCl) [Example 556], which melting point is on record?
The melting point was 179 to 181 °C.

For `COc1c(F)cc(F)cc1S(=O)(=O)c1ccc2c(c1)OC1CNCCC21C` (stereo not shown) (as salt: HCl) [Example 486], which melting point is on record?
Its melting point is 259 to 261 °C.

For `CC12CCNCC1Oc1ccc(S(=O)(=O)c3ccncc3)cc12` (racemic) (as salt: HCl) [Example 13, 4a-methyl-6-(pyridin-4-ylsulfonyl)-1,2,3,4,4a,9a-hexahydro[1]benzofuro[2,3-c]pyridine], which melting point is on record?
The melting point was 186 to 188 °C.

For `O=S(=O)(c1cccc(OCc2cnccn2)c1)c1ccc2c(c1)OC1CNCCC21` (stereo not shown) (as salt: HCl) [Example 567], which melting point is on record?
Its melting point is 244 to 245 °C.

Which melting point does the source give for `O=S(=O)(c1cccc(OCC2CCOCC2)c1)c1ccc2c(c1)OC1CNCCC21` (stereo not shown) (as salt: HCl) [Example 581, 7-{[3-(tetrahydro-2H-pyran-4-ylmethoxy)phenyl]sulfonyl}-1,2,3,4,4a,9a-hexahydro[1]benzofuro[2,3-c]pyridine] here?
Its melting point is 186 to 188 °C.

Which melting point does the source give for `COc1cc(OC)cc(S(=O)(=O)c2ccc3c(c2)OC2CNCCC32C)c1` (stereo not shown) (as salt: HCl) [Example 490] here?
Its melting point is 250 to 252 °C.

With `CC(C)Oc1cc(OCCO)cc(S(=O)(=O)c2ccc3c(c2)OC2CNCCC32)c1` (stereo not shown) (as salt: HCl) [Example 590] as the molecule, how does the melting point read?
The melting point was 205 to 208 °C.

Which melting point does the source give for `O=S(=O)(c1ccc2c3c(oc2c1)C1(CCOCC1)NCC3)c1cccc(F)c1F` (as salt: HCl) [Example 475] here?
Its melting point is 250 to 265 °C.

Which melting point does the source give for `CC(C)Oc1cccc(S(=O)(=O)c2ccc3c(c2)OC2CNCCC32)c1F` (stereo not shown) (as salt: HCl) [Example 481] here?
Its melting point is 221 to 223 °C.

For `CC(=O)N1CCC2(CC1)NCCc1c2oc2cc(S(=O)(=O)c3cccc(F)c3)ccc12` (as salt: HCl) [Example 41, 1-{7-[(3-fluorophenyl)sulfonyl]-3,4-dihydro-1′H,2H-spiro[1-benzofuro[2,3-c]pyridine-1,4′-piperidin]-1′-yl}ethanone], which melting point is on record?
Its melting point is 256 °C (dec.).

With `Cc1c(OCc2cccnc2)cccc1S(=O)(=O)c1ccc2c(c1)OC1CNCCC21` (stereo not shown) (as salt: HCl) [Example 566] as the molecule, how does the melting point read?
Its melting point is 179 to 182 °C.

Which melting point does the source give for `COc1cc(OC)cc(S(=O)(=O)c2ccc3c(c2)OC2CNCCC32)c1` (stereo not shown) (as salt: HCl) [Example 480] here?
Its melting point is 248 to 251 °C.

With `CC(C)Oc1cccc(S(=O)(=O)c2ccc3c(c2)OC2CNCCC32C)c1` (single isomer, unassigned) (as salt: HCl) [Example 20, 4a-methyl-7-{[3-(propan-2-yloxy)phenyl]sulfonyl}-1,2,3,4,4a,9a-hexahydro[1]benzofuro[2,3-c]pyridine] as the molecule, how does the melting point read?
Its melting point is 184 to 185 °C.

Which melting point does the source give for `CC1(C(F)F)NCCc2c1oc1cc(S(=O)(=O)c3cccc(F)c3F)ccc21` (single isomer, unassigned; enantiomer 1) (as salt: HCl) [Example 471, 1-(Difluoromethyl)-7-[(2,3-difluorophenyl)sulfonyl]-1-methyl-1,2,3,4-tetrahydro[1]benzofuro[2,3-c]pyridine, enantiomer 1] here?
The melting point was 247 to 250 °C.

For `O=S(=O)(c1cc(F)cc(OCc2ccccc2)c1)c1ccc2c(c1)OC1CNCCC21` (stereo not shown) (as salt: HCl) [Example 484], which melting point is on record?
The melting point was 171 to 172 °C.

For `CC(C)Oc1cccc(S(=O)(=O)c2ccc3c4c(oc3c2)C2(CCCOC2)NCC4)c1` (racemic) (as salt: HCl) [Example 23, 7-{[3-(propan-2-yloxy)phenyl]sulfonyl}-3,4,5′,6′-tetrahydro-2H,4′H-spiro[1-benzofuro[2,3-c]pyridine-1,3′-pyran]], which melting point is on record?
Its melting point is 148 to 155 °C (dec.).

With `CC(=O)NCC1(C)NCCc2c1oc1cc(S(=O)(=O)c3cccc(F)c3)ccc21` (stereo not shown) (as salt: HCl) [Example 631, N-({7-[(3-fluorophenyl)sulfonyl]-1-methyl-1,2,3,4-tetrahydro[1]benzofuro[2,3-c]pyridin-1-yl}methyl)acetamide] as the molecule, how does the melting point read?
Its melting point is 217 to 227 °C.

For `CC1OCCC12NCCc1c2oc2cc(S(=O)(=O)c3cccc(F)c3)ccc12` (single isomer, unassigned) (as salt: HCl) [Example 60, 7-[(3-Fluorophenyl)sulfonyl]-2′-methyl-3,4,4′,5′-tetrahydro-2H-spiro[1-benzofuro[2,3-c]pyridine-1,3′-furan]], which melting point is on record?
The melting point was 298 to 301 °C (dec.).

Which melting point does the source give for `CN(C)C(=O)c1c(F)cccc1S(=O)(=O)c1ccc2c(c1)OC1CNCCC21` (stereo not shown) (as salt: HCl) [Example 476] here?
The melting point was 283 to 286 °C.

For `COc1cc(OC2CCC2)cc(S(=O)(=O)c2ccc3c(c2)OC2CNCCC32)c1` (stereo not shown) (as salt: HCl) [Example 583], which melting point is on record?
The melting point was 218 to 220 °C.

Which melting point does the source give for `CC(=O)NCC1(C)NCCc2c1oc1cc(S(=O)(=O)c3cccc(F)c3)ccc21` (stereo not shown) (as salt: HCl) [Example 632, N-({7-[(3-fluorophenyl)sulfonyl]-1-methyl-1,2,3,4-tetrahydro[1]benzofuro[2,3-c]pyridin-1-yl}methyl)acetamide] here?
Its melting point is 210 to 260 °C.

Which melting point does the source give for `Cc1cccc(S(=O)(=O)c2ccc3c(c2)OC2CNCCC32C)n1` (racemic) (as salt: HCl) [Example 6, 4a-methyl-7-[(6-methylpyridin-2-yl)sulfonyl]-1,2,3,4,4a,9a-hexahydro[1]benzofuro[2,3-c]pyridine] here?
Its melting point is 255 to 258 °C.

With `COc1cc(OC2CCCC2)cc(S(=O)(=O)c2ccc3c(c2)OC2CNCCC32)c1` (stereo not shown) (as salt: HCl) [Example 586] as the molecule, how does the melting point read?
Its melting point is 239 to 241 °C.

For `CCOc1cccc(S(=O)(=O)c2ccc3c(c2)OC2CNCCC32C)c1` (racemic) (as salt: HCl) [Example 10, 7-[(3-ethoxyphenyl)sulfonyl]-4a-methyl-1,2,3,4,4a,9a-hexahydro[1]benzofuro[2,3-c]pyridine], which melting point is on record?
The melting point was 271 to 273 °C.

With `CC(C)Oc1cccc(S(=O)(=O)c2ccc3c(c2)OC2CNCCC32C)c1` (racemic) (as salt: HCl) [Example 12, 4a-methyl-7-{[3-(propan-2-yloxy)phenyl]sulfonyl}-1,2,3,4,4a,9a-hexahydro[1]benzofuro[2,3-c]pyridine] as the molecule, how does the melting point read?
Its melting point is 206 to 208 °C.
